Experiments:
[1] = tested on: SARS-CoV-2 (nCoV/Washington/1/2020); experiment: microbe, parasite or virus in culture; format: cell-based; settings: for EC50: Severe acute respiratory syndrome coronavirus 2, A549-ACE2, read-out: EC50 against SARS-CoV-2 infection; for Inhibition of SARS-CoV-2 infection (in words): A549-ACE2 cells
[2] = tested on: SARS-CoV-2 wild-type, B.1.1.7, B.1.351 and P.1; format: cell-based

| Structure (SMILES) | EC50 [1] [nM] | further results |
| --- | --- | --- |
| Cc1ccc(NC(=O)c2ccc(CN3CCN(C)CC3)cc2)cc1Nc1nc(-c2cccnc2)cs1 [Masitinib] | – | Inhibition of SARS-CoV-2 infection when added after infection [1]: effective in inhibiting SARS-CoV-2 infection; Viral progeny production [2]: dramatically reduced viral progeny production |
| CN1CCCC(n2nc(Cc3ccc(Cl)cc3)c3ccccc3c2=O)CC1 (stereo not drawn) [Azelastine] | 2400 | – |
| OCCN1CCN(CCC=C2c3ccccc3Sc3ccc(C(F)(F)F)cc32)CC1 [Flupenthixol] | 760 | – |
| CC(CN(C)C)CN1c2ccccc2CCc2ccccc21 (stereo not drawn) [Trimipramine] | 1500 | – |
| Cc1ccc(NC(=O)c2ccc(CN3CC[C@H](N(C)C)C3)c(C(F)(F)F)c2)cc1Nc1nccc(-c2cncnc2)n1 [Bafetinib] | 2200 | – |
| CCC(CC)COC(=O)[C@H](C)N[P@](=O)(OC[C@H]1O[C@@](C#N)(c2ccc3c(N)ncnn23)[C@H](O)[C@@H]1O)Oc1ccccc1 [Remdesivir] | 720 | – |
| C[C@@H]1[C@H](O)[C@@H](C)/C=C/C=C/C=C/C=C/C=C/C=C/C=C/[C@H](O[C@@H]2O[C@H](C)[C@@H](O)[C@H](N)[C@@H]2O)C[C@@H]2O[C@](O)(C[C@@H](O)C[C@@H](O)[C@H](O)CC[C@@H](O)C[C@@H](O)CC(=O)O[C@H]1C)C[C@H](O)[C@H]2C(=O)O [Amphotericin B] | – | Inhibition of SARS-CoV-2 infection (in words) [1]: did not inhibit SARS-CoV-2 infection |
| Cc1ccc(NC(=O)c2ccc(CN3CCNCC3)cc2)cc1Nc1nc(-c2cccnc2)cs1 [AB3280] | – | Inhibition of SARS-CoV-2 infection (in words) [1]: maintains its antiviral activity |
| CS(=O)(=O)CCNCc1ccc(-c2ccc3ncnc(Nc4ccc(OCc5cccc(F)c5)c(Cl)c4)c3c2)o1 [Lapatinib] | 1600 | – |
| COC(=O)N[C@H](C(=O)N1CCC[C@H]1c1nc(-c2ccc3c(c2)O[C@@H](c2ccccc2)n2c-3cc3cc(-c4c[nH]c([C@@H]5CCCN5C(=O)[C@@H](NC(=O)OC)C(C)C)n4)ccc32)c[nH]1)C(C)C [Elbasvir] | – | Inhibition of SARS-CoV-2 infection (in words) [1]: did not inhibit SARS-CoV-2 infection |
| COc1ccc2cc1Oc1ccc(cc1)C[C@H]1c3c(cc4c(c3Oc3cc5c(cc3OC)CCN(C)[C@@H]5C2)OCO4)CCN1C [Cepharanthine] | 100 | – |
